Some test systems named below: DLD-1 colon; U251 CNS; P388 leukemia; OVCAR-4 ovarian; DMS 114 small cell lung; XF 498 CNS; M19-MEL melanoma; SN12K1 renal; OVCAR-3 ovarian; MALME-3M melanoma; OVCAR-8 ovarian; KM20L2 colon; P388/ADR leukemia; DMS 273 small cell lung; HOP-18 NSCLC; SNB-78 CNS.
Holding throughout (test): NCI tumour cell line growth inhibition, 48 h

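Assay format: 96-well plates, 48-hour exposure. TGI: concentration producing complete growth inhibition.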

With `CCCCC(NC(=O)CC)C(=O)O` (configuration not stated), the TGI in the assay on DLD-1 colon, in the assay on U251 CNS, in the assay with P388 leukemia, in the assay on OVCAR-4 ovarian, in the assay on DMS 114 small cell lung and in the assay with XF 498 CNS was more than 100 µM in each case. The TGI in the assay on M19-MEL melanoma, in the assay with SN12K1 renal, in the assay on OVCAR-3 ovarian, with MALME-3M melanoma, in the assay with OVCAR-8 ovarian and with KM20L2 colon was more than 100 µM each time. Besides, the TGI in the assay with P388/ADR leukemia, with DMS 273 small cell lung, in the assay with HOP-18 NSCLC and with SNB-78 CNS was more than 100 µM each time.
As to `CC1C(=O)C(C)C(c2cccs2)N(N=O)C1c1cccs1` (configuration not stated), the TGI with DLD-1 colon, in the assay on U251 CNS, in the assay on P388 leukemia, with OVCAR-4 ovarian, in the assay with DMS 114 small cell lung and in the assay with XF 498 CNS was more than 100 µM each time. Also, the TGI in the assay on M19-MEL melanoma was more than 100 µM; in the assay with SN12K1 renal, more than 100 µM; in the assay on OVCAR-3 ovarian, more than 100 µM; in the assay on MALME-3M melanoma, more than 19.7 µM; in the assay on OVCAR-8 ovarian, more than 100 µM; in the assay with KM20L2 colon it was more than 100 µM. The TGI in the assay on P388/ADR leukemia, with DMS 273 small cell lung and with SNB-78 CNS was more than 100 µM in each case.
As to `O=C1ON(Cc2ccccc2)C(c2ccccc2)N1c1ccccc1` (configuration not stated), the TGI in the assay on DLD-1 colon, in the assay on U251 CNS, with P388 leukemia, in the assay on OVCAR-4 ovarian, in the assay on DMS 114 small cell lung and in the assay with XF 498 CNS was more than 100 µM in each case. Further, the TGI in the assay with M19-MEL melanoma, in the assay on SN12K1 renal, in the assay with OVCAR-3 ovarian, with MALME-3M melanoma, with OVCAR-8 ovarian and in the assay with KM20L2 colon was more than 100 µM each time. Moreover, the TGI with P388/ADR leukemia, in the assay on DMS 273 small cell lung, with HOP-18 NSCLC and in the assay with SNB-78 CNS was more than 100 µM each time.

Values taken from PubChem BioAssay (NCI).
